Laboratory results published in publication PMC8764033, “Single-molecule analysis of specificity and multivalency in binding of short linear substrate motifs to the APC/C” (Nature Communications, 2022).
Several values for one entry are separate records, joined by “and”; a condition that tells them apart may be missing. Equal values may be shown once. Read-outs that look alike come from different tables or passages of the source. Where a SMILES comes first, the peptide text is derived from it.

Molecular target: T1, APC/C^Cdh1 (Saccharomyces cerevisiae, UniProt P53068+P53197)
T1 construct: APC/C was purified from yeast cells; made in house; host or cells: APC/C from S. cerevisiae W303 strain NHY13 (Cdc16-TAP, Apc1-GFP, cdh1 deleted); Cdh1 from Sf9 (baculovirus)
Type: binding
Settings: for mean dwell time: representative of two independent experiments, ± SE, ligand ≤1 nM, buffer C + BSA
Description: Yeast strains were derivatives of W303 and are listed in Supplementary Table 2. For APC/C purification, we used a strain carrying Cdc16-TAP and lacking Cdh1 (DOM1126); in most experiments, the strain also carried Apc1-GFP (NHY13). Yeast were grown in YPD media to OD600 = 0.8, collected and flash-frozen. Cells were lysed by bead beating in lysis buffer A (50 mM HEPES pH 7.5, 150 mM KCl, 10% glycerol, 0.2% Triton X-100, 63 µM B-glycerophosphate, 48 µM sodium fluoride, 1 µg ml^−1 pepstatin A, 1 µg ml^−1 leupeptin, 1 µg ml^−1 aprotinin, 1 mM PMSF, 1 mM DTT, 0.5 mM EDTA) and APC/C was purified using magnetic IgG beads. The beads were washed using wash buffer A (20 mM HEPES pH 7.5, 150 mM KCl, 10% Glycerol, 0.05% Triton X-100). After incubation with purified Cdh1 or Cdc20, the APC/C was cleaved off the beads with TEV protease in wash buffer A with 0.05% Tween-20 (for single-molecule studies) or 0.05% Triton X-100 (for ensemble assays such as ubiquitylation) and used immediately.
For all SMOR experiments, 24 × 50 mm high precision glass coverslips (Bioscience Tools) and drilled microscope slides were passivated with a combination of PEG and PEG-biotin (coverslips) or PEG only (slides) following a previously published protocol for SiMPull[31]. Reaction chambers (~20 µl) were created using double-sided tape and epoxy. Protein was immobilized on the surface with 0.2 mg ml^−1 NeutrAvidin in buffer C (20 mM HEPES pH 7.5, 150 mM KCl, 10% glycerol, 0.05% Tween-20, 1 mM DTT). Excess NeutrAvidin was washed away and incubated with either biotin-conjugated mouse monoclonal anti-Strep-Tag II antibody (LSBio, Cat. No. LS-C203632-100) or biotin-conjugated rabbit polyclonal anti-GFP antibody (Rockland, Cat. No. 600-406-215) diluted in buffer C + BSA (0.1 mg ml^−1; Molecular Biology Grade Bovine Serum Albumin). Activator WD40 and activated APC/C (typically 50 µl containing about 65 ng APC/C, of which only a small fraction is immobilized on the glass) were immobilized using anti-Strep-Tag II, while APC/C alone was immobilized with anti-GFP. SMOR results were similar when performed in the buffer (wash buffer B) used in polarization anisotropy.
To capture dynamic protein–protein interactions, dye-labeled substrate diluted in buffer C + BSA was added to the chamber containing immobilized proteins. Interactions were imaged by TIRF microscopy as described below. For optimal signal-to-noise ratio, peptide concentration was no greater than 1 nM. Protein substrates included Hsl1 aa 667–872 and a C-terminal HaloTag followed by a TAP tag, and were produced by translation in rabbit reticulocyte lysates using TnT Quick Coupled Transcription/Translation System (Promega) (see Supplementary Table 5 for plasmids). Protein was purified with magnetic IgG beads and labeled on the bead with JF549 or JF646 dye so that unbound dye could be washed away. Purified dye-labeled protein was then cleaved from the beads using TEV protease. Before adding substrate to the reaction chamber, oxygen scavenging reagents were added (10 nM protocatechuate-3,4-dioxygenase, 2.5 mM protocatechuic acid, and 1 mM Trolox)[41]. A detailed description of the SMOR analysis pipeline is found in Supplementary Note 1.
Microscopy was performed with a Nikon Eclipse TE2000-E with Perfect Focus with a 100 × 1.49na oil, Apo TIRF DIC N2, 0.13-0.2, WD0.12 objective. Movies were recorded using the Andor iXon DU-897E-CSO. For visualizing GFP-tagged protein, a 491 nm laser was used with an ET525/50 (Chroma) filter for emission. For visualizing JF549-labeled substrate, a 561 nm laser was used with an ET595/50 (Chroma) filter for emission. For visualizing all Cy5-labeled peptides and JF646-labeled substrates, a 640 nm laser was used with an ET685/70 filter (Chroma) for emission. Initially, for each substrate tested, we acquired movies at multiple intervals to deduce the optimal interval to decrease bleaching. µManager version 2.0 was used to control the microscope and record time-lapse movies.

[1] = Supplementary Table 1, replicate 1
[2] = Supplementary Table 1, replicate 2
[3] = Supplementary Table 1, replicate 1 (movie listed first)
[4] = Supplementary Table 1, replicate 2 (movie listed second)

Compound | binding (in words) | Dwell Time (in words) [1] | Dwell Time (in words) [2] | Dwell Time [3] | Dwell Time [4] | mean dwell time
SKAAQFMLYEETAEERNI-K(Cy5) [Acm1 ABBA, Cy5-labeled Cdh1-specific ABBA motif from pseudosubstrate yeast protein Acm1] | No binding | no binding | no binding | – | – | –
CC[C@H](C)[C@H](NC(=O)[C@H](Cc1ccccc1)NC(=O)[C@H](CO)NC(=O)[C@H](CCCCN)NC(=O)[C@H](CO)NC(=O)[C@H](CCCNC(=N)N)NC(=O)[C@H](CC(N)=O)NC(=O)[C@H](CC(N)=O)NC(=O)[C@H](CC(=O)O)NC(=O)[C@H](CCCCN)NC(=O)[C@H](C)NC(=O)[C@H](C)NC(=O)[C@H](CC(C)C)NC(=O)[C@@H]1CCCN1C(=O)[C@H](CC(C)C)NC(=O)[C@H](CCCNC(=N)N)NC(=O)CNC(=O)[C@H](CCC(N)=O)NC(=O)[C@H](CCC(N)=O)NC(=O)[C@H](CCC(N)=O)NC(=O)[C@H](C)N)C(=O)N[C@@H](CCCCN)C(=O)O [ySecurin D box] (H-AQQQGRLPLAAKDNNRSKSFIK-OH; N-terminus and C-terminus assumed) | – | – | – | 0.132 ± 0.002 s | 0.121 ± 0.006 s | 0.132 ± 0.002 s and 0.132 s
LPKATRKALGTVNRATEKSVK-K(Cy5) [AurKB D box, Cy5-labeled D box peptide of Aurora B kinase] | No binding | no binding | no binding | – | – | –
CC(C)C[C@H](NC(=O)[C@H](C)NC(=O)[C@H](CCCNC(=N)N)NC(=O)[C@H](CCCNC(=N)N)NC(=O)[C@@H]1CCCN1C(=O)[C@H](CCCCN)NC(=O)[C@H](CO)NC(=O)[C@H](CC(=O)O)NC(=O)[C@@H](N)CCC(N)=O)C(=O)N[C@H](C(=O)N[C@@H](CC(=O)O)C(=O)N[C@H](C(=O)N1CCC[C@H]1C(=O)N[C@H](C(=O)N[C@@H](CC(N)=O)C(=O)N[C@@H](CC(N)=O)C(=O)N[C@@H](CC(N)=O)C(=O)N1CCC[C@H]1C(=O)N[C@@H](CC(C)C)C(=O)N[C@@H](CO)C(=O)N[C@@H](CCC(N)=O)C(=O)N[C@@H](CCCCN)C(=O)O)C(C)C)C(C)C)[C@@H](C)O [Clb5 D box] (H-QDSKPRRALTDVPVNNNPLSQK-OH; N-terminus and C-terminus assumed) | – | – | – | 0.146 ± 0.007 s | 0.159 ± 0.004 s | 0.159 ± 0.004 s and 0.159 s
CC[C@H](C)[C@H](NC(=O)[C@H](CC(=O)O)NC(=O)[C@H](CO)NC(=O)[C@H](C)NC(=O)[C@H](C)NC(=O)[C@H](C)NC(=O)[C@H](C)NC(=O)[C@H](CCCCN)NC(=O)[C@@H]1CCCN1C(=O)[C@H](CCCCN)NC(=O)[C@H](CCC(N)=O)NC(=O)[C@@H](N)CCC(=O)O)C(=O)N[C@H](C(=O)N[C@@H](C)C(=O)N[C@@H](CO)C(=O)N[C@@H](Cc1ccccc1)C(=O)N[C@@H](CC(N)=O)C(=O)N[C@@H](CCCCN)C(=O)N[C@@H](CCSC)C(=O)N[C@@H](CC(N)=O)C(=O)N[C@@H](CCCCN)C(=O)O)[C@@H](C)O [Hsl1 D box mutant] (H-EQKPKAAAASDITASFNKMNK-OH; N-terminus and C-terminus assumed) | No binding | no binding | – | – | – | –
LIYVDKENGEPGTR-K(Cy5) [hSecurin KEN, Cy5-labeled KEN box peptide of human securin/Pttg1] | No binding | no binding | no binding | – | – | –
